Test results reported in patent US8932807B2, “High throughput in vitro translation (cell-lysate based) assay for detecting quorum sensing signals” (University of South Carolina, priority 2007, dated 2015).

Tests used:
Type in all cases: biochemical, Agrobacterium tumefaciens NTL4 (pCF218)(pCF372)
[1] = molecular target: T1, receptor protein TraR (Agrobacterium tumefaciens, UniProt P33905); assay: cell-free lysate luminescence assay (Beta-Glo) for detection of AHLs; settings: for detection of the AHL by the cell-free assay: comparison of absorbance and luminescence assays; for minimum concentration of AHL resulting in an induction ratio greater than 3, Luminescence assay: cell-free lysate, Beta-Glo, 30° 2 h + 1 h, means±SD (n=3); for level that can be detected, luminescence assay / minimum detection limit, luminescence assay: summary statement
T1 construct: expressed in transfected cells; host or cells: Agrobacterium tumefaciens NTL4 (pCF218)(pCF372); crude cell-free lysate (supernatant of sonicated cells)
T1 sequence (P33905 whole entry): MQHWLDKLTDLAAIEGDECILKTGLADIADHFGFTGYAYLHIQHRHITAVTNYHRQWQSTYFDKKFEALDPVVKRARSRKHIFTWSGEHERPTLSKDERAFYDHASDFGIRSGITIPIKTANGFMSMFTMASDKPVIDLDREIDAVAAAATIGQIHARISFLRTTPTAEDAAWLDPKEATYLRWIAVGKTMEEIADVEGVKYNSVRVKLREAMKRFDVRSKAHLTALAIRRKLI
Procedure: From step 5) • 6) 50 μl of sample solution containing AHLs was added in 96-well plate. • 7) 50 μl of assay reagent diluted in 20 mM KH2PO4 was added into each well, mix and incubate at 30° for 2 h. • 8) 100 μl of an appropriate luminescent substrate (e.g. β-Glo, Promega) was added into each well, mix and incubate and incubate at 30° C. for 1 h. • 9) luminescence was read by microplate luminometer (e.g. Veritas Turner BioSystems). This experiment is discussed in greater detail below.
(§1) Preparation of cell-free lysate. One liter of the reporter strain was grown in AT minimum glucose media (30° C. with shaking for 18 h) to early exponential-phase and then harvested by centrifugation (12,000×g; 10 min). Cell pellets were collected and resuspended in 5 ml of KH2PO4 buffer (100 mM; pH 7.4), then sonicated for 30 sec. three times and centrifuged (12,000×g) at 4° C. for 30 min to remove particulate cell fragments. The supernatant was collected as the ‘cell-free lysate (CFL)’ reagent, and was stored (−80° C.) until use.
Comparison of absorbance and luminescence assays. To improve the sensitivity of the cell-free approach, a luminescence assay was developed for AHLs. The protocol involved: 1) addition of 50 μl of sample solution containing AHLs into a 96-well plate; 2) addition of 50 μl of cell-free extract, diluted in 20 mM KH2PO4 buffer (pH 7.0) resulting in a protein concentration of 80 μg/ml for each well, and then mixed and incubated at 30° for 2 h; 3) addition of 100 μl of β-Glo® (Promega) into each well, followed by mixing and incubation (30° C. for 1 h); and 4) measurement of luminescence using a Veritus Microplate Luminometer (Turner BioSystems). For control wells, 20 mM KH2PO4 (pH 7.0) buffer was used. To determine the detection limit, a 1:1 serial dilution of each AHL was performed in triplicate using 20 mM KH2PO4 (pH 7.0) buffer. Then, absorbance assays were conducted. Induction of β-galactosidase activity was calculated by dividing the sample absorbance or luminescence with that of controls. An induction ratio greater than 3 was considered active (27).

[2] = molecular target: T1, receptor protein TraR; assay: cell-free lysate absorbance assay (X-Gal, 635 nm) for detection of AHLs; settings: for minimum concentration of AHL resulting in an induction ratio greater than 3, Absorbance assay: cell-free lysate, X-Gal, absorbance 635 nm, means±SD (n=3)
Procedure: Absorbance Assay • 1) A culture of A. tumefaciens NTL4 (pCF218)(pCF372) was grown in 250 ml of AT minimal glucose media plus streptomycin (50 μg/ml) and tetracycline (5 μg/ml) at 30° C. with shaking for 18 hrs. • 2) The resulting cell culture was centrifuged at 10,000 rpm for 10 min. to collect cell pellets. • 3) The collected cell pellets were sonicated in 8 ml of 0.1 M KH2PO4 (pH 7.0) buffer to produce a homogenate. • 4) The sonicated homogenate was centrifuged at 50,000 rpm for 30 min. and the supernatant solution was collected. • 5) The supernatant solution was stored at −20° C. until the experiment. • 6) 50 μl of a sample solution containing AHLs was added to the wells of a 96-well plate. • 7) 50 μl of the collected supernatant solution from step (5), along with 100 μl of 20 mM KH2PO4, was added and mixed to each sample, and each sample was incubated at 30° for 2 h. • 8) 1 μl of X-Gal (20 mg/ml) was added and mixed into each well, and each sample was incubated at 30° C. for 1 h. • 9) The absorbance of each well was read at 635 nm.
as §1
Confirmation of β-galactosidase expression in vitro cell-free solution. To confirm β-galactosidase expression in cell-free solution, the following simple absorbance assay for AHLs was used. The protocol involved: 1) addition of 50 μl of sample solution containing AHLs into a 96-well plate; 2) addition of 50 μl of cell-free extract and 100 μl of 20 mM KH2PO4 (pH 7.0) into each well, followed by mixing and incubation at 30° C. for 2 h; 3) addition of 1 μl of X-Gal (20 mg/ml) into each well, then mixing and incubation at 30° C. for 1 h; and 4) measurement of absorbance in each well at 635 nm by spectrophotometer (Shimadzu UV-2401 PC UV-VIS, Shimadzu Corp.). To determine the detection limits, 1:1 serial dilutions of each AHL in 20 mM KH2PO4 (pH 7.0) buffer were performed in triplicate. Induction of β-galactosidase activity was calculated by dividing the absorbance of samples by those of controls. An induction ratio greater than 3 was considered active.

[3] = tested on: binding of AHL/TraR complex to β-galactosidase promoter; assay: inhibition of Reactions 2) and 3) of the cell-free assay by streptomycin; settings: 1 μM C8-AHL, 30 min pre-incubation, absorbance, FIG. 5C
Procedure: Inhibition of Reactions 2) and 3). […] First, 50 μl aliquots of 1 μM C8-AHL solution was added to each tube, followed by addition of cell-free extract. Further, a series of increasing concentrations of streptomycin (i.e. 0, 50, 125, 250, 300 μg) were added to the cell-free extract and incubated for 30 min. prior to the assay (4, 22, 29). Then, β-galactosidase expression was measured by absorbance.

SMILES	minimum concentration of AHL resulting in an induction ratio greater than 3, Luminescence assay [1] [nM]	level that can be detected, luminescence assay [1]	minimum concentration of AHL resulting in an induction ratio greater than 3, Absorbance assay [2] [nM]	minimum detection limit, luminescence assay [1]	also measured
CCCC(=O)N[C@H]1CCOC1=O [C4-AHL, N-butanoyl-homoserine lactone]					detection of the AHL by the cell-free assay [1]: not able to detect
CCCCCC(=O)NC1CCOC1=O (stereo not drawn) [C6-AHL, N-hexanoyl-homoserine lactone]	30 ± 3	low μM level	335 ± 10		
CCCCCCC(=O)N[C@H]1CCOC1=O [C7-AHL, N-heptanoyl-homoserine lactone]	25 ± 5		245 ± 8	approximately 10 nM	
CCCCCCCC(=O)NC1CCOC1=O (stereo not drawn) [C8-AHL, N-octanoyl-homoserine lactone]	20 ± 2		225 ± 11	approximately 10 nM	absorbance changes (635 nm) proportional to concentration, up to ([2]; dose-response of β-galactosidase expression, FIG. 6): up to 2 μM
CCCCCCCCCC(=O)N[C@H]1CCOC1=O [C10-AHL, N-decanoyl-homoserine lactone]	100 ± 5	low μM level	1300 ± 20		
CCCCCCCCCCCC(=O)NC1CCOC1=O (stereo not drawn) [C12-AHL, N-dodecanoyl-homoserine lactone]	200 ± 6	low μM level	2400 ± 30		
CCCCCCCCCCCCCC(=O)N[C@H]1CCOC1=O [C14-AHL, N-tetradecanoyl-homoserine lactones]					detection of the AHL by the cell-free assay [1]: not able to detect
CCCC(=O)CC(=O)N[C@H]1CCOC1=O [oxo-C6-AHL, N-3-oxo-hexanoyl-homoserine lactone]	17 ± 2		180 ± 25	approximately 10 nM	
CCCCCC(=O)CC(=O)NC1CCOC1=O (stereo not drawn) [oxo-C8-AHL, N-3-oxo-octanoyl-homoserine lactone]	10 ± 3		120 ± 10		
[H]/N=C(/N)N[C@H]1[C@H](O)[C@@H](O)[C@H](O[C@@H]2O[C@@H](C)[C@](O)(C=O)[C@H]2O[C@@H]2O[C@@H](CO)[C@H](O)[C@@H](O)[C@@H]2NC)[C@@H](N/C(N)=N\[H])[C@@H]1O [streptomycin]					streptomycin additions that reduced assay activities [3]: above 125 μg/ml
